Columns and labels:
B16-F10 = assay: Cytotoxicity against mouse B16-F10 cells assessed as reduction in cell viability incubated for 72 hrs by Alamar blue assay; format: functional, cell-based; conditions: B16-F10, 72 h
K562 = assay: Cytotoxicity against human K562 cells assessed as reduction in cell viability incubated for 72 hrs by Alamar blue assay; format: functional, cell-based; conditions: K562, 72 h
HepG2 = assay: Cytotoxicity against human HepG2 cells assessed as reduction in cell viability incubated for 72 hrs by Alamar blue assay; format: functional, cell-based; conditions: HepG2, 72 h
HL-60 = assay: Cytotoxicity against human HL-60 cells assessed as reduction in cell viability incubated for 72 hrs by Alamar blue assay; format: functional, cell-based; conditions: HL-60, 72 h
[1] = Cytotoxicity against human PBMC cells assessed as reduction in cell viability incubated for 72 hrs by Alamar blue assay; format: cell-based

| Compound | IC50 (B16-F10) | IC50 (K562) | IC50 (HepG2) | IC50 (HL-60) | IC50 [1] |
| --- | --- | --- | --- | --- | --- |
| COc1cccc2c1C(=O)c1c(O)c3c(c(O)c1C2=O)C[C@@](O)(C(=O)CO)C[C@@H]3O[C@H]1C[C@H](N)[C@H](O)[C@H](C)O1 [DOXORUBICIN] | 2300 nM | 700 nM | 0.2 µM | 0.8 µM |  |
| O=C1c2ccccc2-c2c3c(cc4ccnc1c24)OCO3 [LIRIODENINE] | > 10000 nM | 5000 nM | 8.3 µM | 5.5 µM | 34.8 µM |
